Laboratory results from patent US20260191999A1, “COMPOUNDS AND THEIR USE” (KING'S COLLEGE LONDON, priority 2022, published 2026).

Key:
[1] = molecular target: T1, human recombinant ALDH1A1 (Homo sapiens, UniProt P00352); assay: ALDH activity colorimetric assay (Biovision), ALDH1A1; assay type: biochemical; conditions: Table 1, class symbols
T1 construct: purchased bio-techne
T1 sequence (P00352 1-501): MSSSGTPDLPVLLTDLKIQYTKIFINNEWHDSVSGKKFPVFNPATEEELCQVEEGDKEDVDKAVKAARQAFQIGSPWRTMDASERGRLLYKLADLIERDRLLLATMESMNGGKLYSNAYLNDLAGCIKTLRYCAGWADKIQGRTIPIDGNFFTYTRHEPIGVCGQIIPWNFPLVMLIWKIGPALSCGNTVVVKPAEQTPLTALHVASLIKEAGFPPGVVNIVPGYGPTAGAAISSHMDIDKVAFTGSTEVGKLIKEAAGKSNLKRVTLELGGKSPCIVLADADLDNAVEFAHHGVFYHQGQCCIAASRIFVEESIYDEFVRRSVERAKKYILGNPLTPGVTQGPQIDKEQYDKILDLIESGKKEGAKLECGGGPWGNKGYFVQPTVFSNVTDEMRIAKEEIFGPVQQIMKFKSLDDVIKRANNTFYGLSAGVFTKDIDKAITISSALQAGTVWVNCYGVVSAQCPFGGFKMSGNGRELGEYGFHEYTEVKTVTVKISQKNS
Description: ALDH substrate kinetics were measured using an ALDH activity colorimetric assay kit (Biovision) according to the manufacturer's instructions. 1 μg/well human recombinant ALDH1A1 (bio-techne), ALDH2 (abcam), or ALDH3A1 (ATGen Co., Ltd) were used. The assay was initiated by the addition of enzyme after all reagents were pre-warmed to 37° C. Plates were read in kinetic mode on a Multiskan FC plate reader (Thermo Scientific) at 450 nm over 40 min at 37° C.
The in vitro potency of the cold, non-radioactive reference compound compared against two different ALDH isoforms, ALDH1A1 and ALDH2 (using the ALDH activity colorimetric assay Kit (Biovision)).
Other reference compounds (PQM-C) were compared against ALDH1A1 (using the ALDH activity colorimetric assay Kit (Biovision)).

[2] = test system: SKOV3-TRip2 and SKOV3-ip1 cells; assay: Cell uptake of radiotracer, drug-resistant vs drug-sensitive SKOV3 cells; assay type: cell-based, human
Description: (§1) For cell uptake studies SKOV3-ip1 and SKOV3-TRip2, A549-WT, A549-KO-ALDH1A1, HEK293-WT and HEK293-ALDH1A1 cells were plated in 6 well plates 24 h prior to the studies, as described above (Western Blotting). One mL of fresh media containing 0.37 MBq of PQM-H-001 and 6 KBq PQM-H-002 was added to each well for the desired incubation time. At 40 min, plates were placed on ice, washed three times with ice-cold PBS to remove exogenous radioactivity and lysed in RIPA buffer ([…]; Fisher Scientific Ltd).
(§2) For all cell uptake and efflux study decay-corrected radioactivity in lysates was determined on a gamma counter ([…]; Wallac 1282 CompuGamma counter), with the remaining cell lysate centrifuged (21,000×g for 10 min at 4° C.) and the supernatant used to determine protein concentration following radioactive decay using a Pierce BCA assay. To quantify radiotracer uptake in cells, three standard solutions of the radioactivity-containing medium were counted on the gamma counter. Data were expressed as a percentage of total radioactivity administered to cells per mg of protein.
Next, the time-dependent uptake of the of the radiotracers PQM-H-001 ([^18F]PQM-H-001) and PQM-H-002 ([^125I]PQM-H-002) was profiled in drug-resistant SKOV3-Trip2 and drug-sensitive SKOV3-ip1 cell lines (Pereira, R., et al. 2019).

[3] = test system: A549-WT and A549-KO-ALDH1A1 human lung cancer cells; assay: Cell uptake of radiotracer, A549-WT vs A549-KO-ALDH1A1; assay type: cell-based; conditions: ALDH1A1 positive vs ALDH1A1 negative cell line
Description: A549-KO-ALDH1A1 cells were obtained using an ALDH1A1 human gene knockout kit (Cat #KN400723) according to manufacturer's instructions (Origene, Rockville, MD, USA). Briefly, 3×10^5 A549 cells were seeded into a 6-well plate and maintained for 24 hours at 37° C., 5% CO2. Lipofectamine 3000 (Cat #L^3000, Invitrogen) was mixed with 1 μg of gRNA vector (pCas-guide) and 1 μg of donor template in Opti-MEM and added to cells for 16 hours. The next day, the transfection medium was removed and replaced with fresh medium. Forty-eight hours post-transfection, medium was replaced with fresh medium containing 0.5 μg/mL of puromycin (Cat #A1113803) which caused 100% cell death in non-transfected control cells after 5 days. Cells resistant to puromycin were subjected to clonal selection by the limiting dilution method. Knockout of protein was confirmed by western blots.
as §1, §2
The following compounds were profiled in A549-WT (positive ALDH1A1) and A549-KO-ALDH1A1 (negative for ALDH1A1) human lung cancer cells as well as HEK293-WT (negative for ALDH1A1) and HEK293-ALDH1A1 (positive for ALDH1A1) human embryonic kidney cells. The fold difference in radiotracer retention for the ALDH1A1 positive cell lines as compared to the ALDH1A1 negative cell lines for each compound is shown in Table 2.

[4] = test system: HEK293-ALDH1A1 and HEK293-WT human embryonic kidney cells; assay: Cell uptake of radiotracer, HEK293-ALDH1A1 vs HEK293-WT; assay type: cell-based; conditions: ALDH1A1 positive vs ALDH1A1 negative cell line
Description: HEK293 stably overexpressing ALDH1A1 were obtained by infecting cells with lentiviral particles containing the nucleotide sequences encoding for human ALDH1A1 (Origene RC200723L^4V LentiORF particles (mGFP-tagged)). Briefly, 1×10^4 HEK-293 cells were seeded into a 24-well plate and maintained for 24 hours at 37° C., 5% CO2. Cells were then infected with the lentiviral particles using a multiplicity of infection (MOI) of 10 in the presence of hexadimethrine bromide (6 μg/mL) (Sigma-Aldrich, St. Louis, MO, USA). The next day, medium was removed and replaced with fresh medium. At 36 h post-infection, medium was replaced with complete culture medium containing puromycin (1 μg/ml) which caused 100% cell death in non-transduced control cells after 5 days. Cells resistant to puromycin were subjected to clonal selection by the limiting dilution method. Overexpression of ALDH1A1 was confirmed by western blots and real-time PCR.
as §1
as §2, with “protein. […]” for “protein.”

IC50 [1] [nM] | Structure (SMILES) | also measured
10 to 100 | CS(=O)(=O)N1CCN(C(=O)c2cnc3c([N+](=O)[O-])cc(F)cc3c2-c2ccc(C3(C#N)CC3)cc2)CC1 [PQM-C-006, 1-(4-(6-Fluoro-3-(4-(methylsulfonyl)piperazine-1-carbonyl)-8-nitroquinolin-4-yl)phenyl)cyclopropane-1-carbonitrile] | –
10 to 100 | CS(=O)(=O)N1CCN(C(=O)c2cnc3c([N+](=O)[O-])cc(I)cc3c2-c2ccc(C3(C#N)CC3)cc2)CC1 [PQM-C-007, 1-(4-(6-Iodo-3-(4-(methylsulfonyl)piperazine-1-carbonyl)-8-nitroquinolin-4-yl)phenyl)cyclopropane-1-carbonitrile] | –
10 to 100 | CS(=O)(=O)N1CCN(C(=O)c2cnc3cc(F)ccc3c2-c2ccc(C3(C#N)CC3)cc2)CC1 [PQM-C-011, 1-(4-(7-Fluoro-3-(4-(methylsulfonyl)piperazine-1-carbonyl)quinolin-4-yl)phenyl)cyclopropane-1-carbonitrile] | –
10 to 100 | CS(=O)(=O)N1CCN(C(=O)c2cnc3cc(I)ccc3c2-c2ccc(C3(C#N)CC3)cc2)CC1 [PQM-C-012, 1-(4-(7-Iodo-3-(4-(methylsulfonyl)piperazine-1-carbonyl)quinolin-4-yl)phenyl)cyclopropane-1-carbonitrile] | –
10 to 100 | CS(=O)(=O)N1CCN(C(=O)c2cnc3c(F)cccc3c2-c2ccc(C3(C#N)CC3)cc2)CC1 [PQM-C-016, 1-(4-(8-Fluoro-3-(4-(methylsulfonyl)piperazine-1-carbonyl)quinolin-4-yl)phenyl)cyclopropane-1-carbonitrile] | –
10 to 100 | CS(=O)(=O)N1CCN(C(=O)c2cnc3c(I)cccc3c2-c2ccc(C3(C#N)CC3)cc2)CC1 [PQM-C-017, 1-(4-(8-Iodo-3-(4-(methylsulfonyl)piperazine-1-carbonyl)quinolin-4-yl)phenyl)cyclopropane-1-carbonitrile] | –
≤ 10 | CS(=O)(=O)N1CCN(C(=O)c2cnc3ccccc3c2-c2ccc(C3(C#N)CC3)c(F)c2)CC1 [PQM-C-021] | –
1000 to 10000 | CS(=O)(=O)N1CCN(C(=O)c2cnc3ccccc3c2-c2ccc(C3(C#N)CC3)c(I)c2)CC1 [PQM-C-022, 1-(2-Iodo-4-(3-(4-(methylsulfonyl)piperazine-1-carbonyl)quinolin-4-yl)phenyl)cyclopropane-1-carbonitrile] | –
≤ 10 | CS(=O)(=O)N1CCN(C(=O)c2cnc3ccccc3c2N2CCC(C#N)(c3ccc(F)cc3)CC2)CC1 [PQM-C-026, 4-(4-fluorophenyl)-1-(3-(4-(methylsulfonyl)piperazine-1-carbonyl)quinolin-4-yl)piperidine-4-carbonitrile] | –
100 to 1000 | CS(=O)(=O)N1CCN(C(=O)c2cnc3ccccc3c2N2CCC(C#N)(c3ccc(I)cc3)CC2)CC1 [PQM-C-027, 4-(4-iodophenyl)-1-(3-(4-(methylsulfonyl)piperazine-1-carbonyl)quinolin-4-yl)piperidine-4-carbonitrile] | –
– | CS(=O)(=O)N1CCN(C(=O)c2cnc3ccc([125I])cc3c2-c2ccc(C3(C#N)CC3)cc2)CC1 [PQM-H-002, 1-(4-(6-(iodo-^125I)-3-(4-(methylsulfonyl)piperazine-1-carbonyl)quinolin-4-yl)phenyl)cyclopropane-1-carbonitrile] | Radiotracer retention, drug resistant versus drug-sensitive cells [2]: 200 times higher; fold difference in radiotracer retention, A549-WT vs A549-KO-ALDH1A1 [3]: 40 fold; fold difference in radiotracer retention, HEK293-ALDH1A1 vs. HEK293-WT [4]: 56 fold
– | CS(=O)(=O)N1CCN(C(=O)c2cnc3c([N+](=O)[O-])cc([125I])cc3c2-c2ccc(C3(C#N)CC3)cc2)CC1 [PQM-H-007, 1-(4-(6-(iodo-^125I)-3-(4-(methylsulfonyl)piperazine-1-carbonyl)-8-nitroquinolin-4-yl)phenyl)cyclopropane-1-carbonitrile] | fold difference in radiotracer retention, A549-WT vs A549-KO-ALDH1A1 [3]: 17 fold; fold difference in radiotracer retention, HEK293-ALDH1A1 vs. HEK293-WT [4]: 2 fold
– | CS(=O)(=O)N1CCN(C(=O)c2cnc3c([125I])cccc3c2-c2ccc(C3(C#N)CC3)cc2)CC1 [PQM-H-017, 1-(4-(8-(fluoro-^125I)-3-(4-(methylsulfonyl)piperazine-1-carbonyl)quinolin-4-yl)phenyl)cyclopropane-1-carbonitrile] | fold difference in radiotracer retention, A549-WT vs A549-KO-ALDH1A1 [3]: 16 fold; fold difference in radiotracer retention, HEK293-ALDH1A1 vs. HEK293-WT [4]: 6 fold
– | CS(=O)(=O)N1CCN(C(=O)c2cnc3ccccc3c2-c2ccc(C3(C#N)CC3)c([125I])c2)CC1 [PQM-H-022, 1-(2-(fluoro-^125I)-4-(3-(4-(methylsulfonyl)piperazine-1-carbonyl)quinolin-4-yl)phenyl)cyclopropane-1-carbonitrile] | fold difference in radiotracer retention, A549-WT vs A549-KO-ALDH1A1 [3]: 6 fold
